Reference: ChEMBL document CHEMBL1201862, “PubChem BioAssay data set” (2004)
Values joined by “and” are separate entries in the source; they are usually repeats but may differ in a detail not shown here. Equal values may be shown once.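 Cultured in 96-well plates, cells were exposed to test compound for 48 hours across five concentrations. Abbreviation: GI50, concentration required for 50% inhibition of growth.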 Active and inactive are the calls of the source. No stated cut-off is given here; in the data, active = GI50 up to about 1.1 µM and inactive = higher.

Assays:
Test in all cases: NCI anticancer screen, dose series, 48 h
OVCAR-8 = test system: OVCAR-8
CCRF-CEM = test system: CCRF-CEM
OVCAR-5 = test system: OVCAR-5
UACC-62 = test system: UACC-62
RXF 393 = test system: RXF 393
SF-539 = test system: SF-539
SK-MEL-5 = test system: SK-MEL-5
DLD-1 = test system: DLD-1
UO-31 = test system: UO-31
ACHN = test system: ACHN
SNB-75 = test system: SNB-75
HT-29 = test system: HT-29
COLO 205 = test system: COLO 205
U-251 = test system: U-251
HCT-15 = test system: HCT-15
SF-268 = test system: SF-268
A549 = test system: A549
Hs-578T = test system: Hs-578T
T47D = test system: T47D
MDA-MB-231 = test system: MDA-MB-231

| SMILES | GI50 (OVCAR-8) | GI50 (CCRF-CEM) | GI50 (OVCAR-5) | GI50 (UACC-62) | GI50 (RXF 393) | GI50 (SF-539) | GI50 (SK-MEL-5) | GI50 (DLD-1) | GI50 (UO-31) | GI50 (ACHN) | GI50 (SNB-75) | GI50 (HT-29) | GI50 (COLO 205) | GI50 (U-251) | GI50 (HCT-15) [µM] | GI50 (SF-268) | GI50 (A549) | GI50 (Hs-578T) | GI50 (T47D) | GI50 (MDA-MB-231) |
| --- | --- | --- | --- | --- | --- | --- | --- | --- | --- | --- | --- | --- | --- | --- | --- | --- | --- | --- | --- | --- |
| CC(C)(C)CC(C)(C)c1cc2c(O)c(c1)Cc1cc(C(C)(C)CC(C)(C)C)cc(c1O)Cc1cc(C(C)(C)CC(C)(C)C)cc(c1O)Cc1cc(C(C)(C)CC(C)(C)C)cc(c1O)C2 | > 100 µM (inactive) | > 100 µM (inactive) | > 100 µM (inactive) | > 100 µM (inactive) | > 100 µM (inactive) | > 100 µM (inactive) | > 100 µM (inactive) | > 100 µM (inactive) | > 100 µM (inactive) | > 100 µM (inactive) | > 100 µM (inactive) | > 100 µM (inactive) | > 100 µM (inactive) | > 100 µM (inactive) | > 100 | > 100 µM (inactive) | > 100 µM (inactive) | – | – | – |
| CCCCCCCCOC(=O)c1cc([N+](=O)[O-])c(Sc2[nH]cnc3ncnc2-3)c([N+](=O)[O-])c1 | 2.18 µM (inactive) | 0.288 µM (active) | 3.15 µM (inactive) | 2.9 µM (inactive) | 7.69 µM (inactive) | 2 µM (inactive) | 3.57 µM (inactive) | 1.11 µM (active) | 3.85 µM (inactive) | 2.92 µM (inactive) | 2.47 µM (inactive) | 1.77 µM (inactive) | 1.6 µM (inactive) | 3.44 µM (inactive) | 2.23 | 2.38 µM (inactive) | 7.98 µM (inactive) | 5.33 µM (inactive) | 0.465 µM (active) | 7.19 µM (inactive) |
| Clc1ccc(C2N3CCCCC3[C@@H]3c4[nH]c5ccccc5c4CCN23)cc1 (stereo partly drawn) | > 100 µM (inactive) | 24.9 µM (inactive) | 56.8 µM (inactive) | 50.6 µM (inactive) | 35.2 µM (inactive) | 44.1 µM (inactive) | 59 µM (inactive) | 56.8 µM (inactive) | 49.7 µM (inactive) | 39.2 µM (inactive) | 80.5 µM (inactive) | 22.5 µM (inactive) | – | 57.9 µM (inactive) | 53 | 57.9 µM (inactive) | 79.6 µM (inactive) | – | – | – |
| COc1cc(/C=C/c2cccnc2)cc(OC)c1OC | > 100 µM (inactive) | > 100 µM (inactive) | 58.9 µM (inactive) | 81.1 µM (inactive) | > 100 µM (inactive) | > 100 µM (inactive) | 47.5 µM (inactive) | > 100 µM (inactive) | 36.5 µM (inactive) | > 100 µM (inactive) | 45.7 µM (inactive) | > 100 µM (inactive) | > 100 µM (inactive) | > 100 µM (inactive) | > 100 | > 100 µM (inactive) | > 100 µM (inactive) | – | – | – |
| CC(NC(=O)c1ccccc1)C(=O)N(Cc1ccccc1)Cc1ccccc1 (stereo not drawn) | – | 21.6 µM (inactive) | 33 µM (inactive) | 16.4 µM (inactive) | 26.5 µM (inactive) | 55.3 µM (inactive) | 22.5 µM (inactive) | 31.4 µM (inactive) | 27.5 µM (inactive) | 31.7 µM (inactive) | > 100 µM (inactive) | 37.1 µM (inactive) | 19.2 µM (inactive) | 29.8 µM (inactive) | 32.1 | 35.4 µM (inactive) | 30.2 µM (inactive) | – | – | – |
| COC1(OC)CC2OC1C1N=NN(C(=O)OC(C)(C)C)C21 (stereo not drawn) | – | 21.1 µM (inactive) | > 100 µM (inactive) | > 100 µM (inactive) | > 100 µM (inactive) | > 100 µM (inactive) | > 100 µM (inactive) | 34.8 µM (inactive) | > 100 µM (inactive) | > 100 µM (inactive) | > 100 µM (inactive) | > 100 µM (inactive) | > 100 µM (inactive) | > 100 µM (inactive) | 43.7 | > 100 µM (inactive) | > 100 µM (inactive) | – | – | – |
| NNC(=S)N/N=C(\CC1OC(=O)c2ccccc21)c1ccccc1O (stereo not drawn) | 30.8 µM (inactive) | 25.9 µM (inactive) | 18.2 µM (inactive) | 35.5 µM (inactive) | 36.4 µM (inactive) | 19.5 µM (inactive) | 42.3 µM (inactive) | 44.6 µM (inactive) | 37.7 µM (inactive) | 59.3 µM (inactive) | 42.6 µM (inactive) | 61.5 µM (inactive) | 47 µM (inactive) | 17.3 µM (inactive) | 55.8 | 50 µM (inactive) | 64.3 µM (inactive) | – | – | – |
| C1CCN(c2nc(=[N+]3CCCCC3)ss2)CC1 | > 100 µM (inactive) | 43.7 µM (inactive) | > 100 µM (inactive) | > 100 µM (inactive) | > 100 µM (inactive) | > 100 µM (inactive) | > 100 µM (inactive) | > 100 µM (inactive) | > 100 µM (inactive) | > 100 µM (inactive) | > 100 µM (inactive) | > 100 µM (inactive) | – | 49.5 µM (inactive) | > 100 | 82 µM (inactive) | 55.8 µM (inactive) | – | – | – |
| CCOC(=N)CC(=O)Nc1ccccc1 | > 21.5 µM (inactive) | 19.4 µM (inactive) | > 100 µM (inactive) | > 100 µM (inactive) | > 46.5 µM (inactive) | > 46.5 µM (inactive) | > 46.5 µM (inactive) | > 46.5 µM (inactive) | > 46.5 µM (inactive) | > 46.5 µM (inactive) | > 46.5 µM (inactive) | > 46.5 µM (inactive) | > 46.5 µM (inactive) | > 100 µM (inactive) | 32.8 | > 46.5 µM (inactive) | > 46.5 µM (inactive) | – | – | – |
| COc1cccc2c1C(=O)c1c(O)c3c(c(O)c1C2=O)C[C@@](O)(C(=O)CO)C[C@@H]3OC1CC(N(C)C)C(O)C(C)O1 (stereo partly drawn) | < 0.0255 µM (active) | 0.0991 µM (active) | 0.0643 µM (active) | < 0.012 µM (active) | 0.0138 µM (active) | < 0.01 µM (active) | 0.0129 µM (active) | < 0.0157 µM (active) | 0.0204 µM (active) | < 0.01 µM (active) | 0.0155 µM (active) | < 0.01 µM (active) | < 0.01 µM (active) | < 0.0134 µM (active) | 0.0182 | < 0.0126 µM (active) | < 0.01 µM (active) | < 0.01 µM (active) | < 0.01 µM (active) | 0.0528 µM (active) |
| COC(=O)[C@@H]1[C@H](O)[C@H](C)[C@H](O)[C@@](C)(O)/C=C\C=C(\C)C(=O)Nc2c(C)c(OC(C)=O)c3c(c2O)C(=O)C(C)=C2OCOC(=C23)/C(C)=C/[C@@](C)(O)[C@H](O)[C@@H](C)[C@H]1OC(C)=O | 31.8 µM (inactive) | 15.8 µM (inactive) | > 66.8 µM (inactive) | 41.3 µM (inactive) | 62.7 µM (inactive) | > 100 µM (inactive) and 50.7 µM (inactive) | 24.5 µM (inactive) | 22.4 µM (inactive) | 25.9 µM (inactive) | 79.4 µM (inactive) | > 66.8 µM (inactive) | 38.5 µM (inactive) and 56.6 µM (inactive) | 72.9 µM (inactive) and 14.6 µM (inactive) | 17.3 µM (inactive) | 26.9 | 4.76 µM (inactive) | 43.3 µM (inactive) | – | – | – |
| Clc1cccc(C2SCc3nc4ccccc4n32)c1Cl (stereo not drawn) | 19 µM (inactive) | 19.1 µM (inactive) | 13.9 µM (inactive) | 19.7 µM (inactive) | 15.6 µM (inactive) | 17.2 µM (inactive) | 14.1 µM (inactive) | 16.6 µM (inactive) | 13 µM (inactive) | 20.8 µM (inactive) | 4.51 µM (inactive) | 13.6 µM (inactive) | 19.8 µM (inactive) | 17.5 µM (inactive) | 17.4 | 21 µM (inactive) | 17.9 µM (inactive) | – | – | – |
| CCOC(=O)C1C(=O)C(C(=O)OCC)C(c2ccccc2)N(C)C1c1ccccc1 (stereo not drawn) | > 100 µM (inactive) | > 100 µM (inactive) | > 100 µM (inactive) | 65.6 µM (inactive) | > 100 µM (inactive) | > 100 µM (inactive) | 66.4 µM (inactive) | > 100 µM (inactive) | > 100 µM (inactive) | > 100 µM (inactive) | > 100 µM (inactive) | > 100 µM (inactive) | > 100 µM (inactive) | 95.9 µM (inactive) | 82.4 | > 100 µM (inactive) | > 100 µM (inactive) | – | – | – |
| Cc1ccccc1NC(=O)CC1C(=O)Nc2ccccc2[S+]1[O-] (stereo not drawn) | 47.9 µM (inactive) | > 100 µM (inactive) | > 100 µM (inactive) | > 100 µM (inactive) | 26.6 µM (inactive) | 36.1 µM (inactive) | > 100 µM (inactive) | > 100 µM (inactive) | > 100 µM (inactive) | 95.3 µM (inactive) | 25.6 µM (inactive) | > 100 µM (inactive) | – | 51.1 µM (inactive) | > 100 | > 100 µM (inactive) | > 100 µM (inactive) | – | – | – |
| CC(=O)OC1C/C(C)=C/CCC(C)/C=C/C2(C)CCC(C(C)(C)O)C12 (stereo not drawn) | 57 µM (inactive) | 28.6 µM (inactive) | > 100 µM (inactive) | 80.4 µM (inactive) | 14 µM (inactive) | > 100 µM (inactive) | 47.6 µM (inactive) | 45.1 µM (inactive) | 37.3 µM (inactive) | 36 µM (inactive) | 40.7 µM (inactive) | 33.4 µM (inactive) | 39.8 µM (inactive) | 39.4 µM (inactive) | 43.9 | 61.7 µM (inactive) | 53 µM (inactive) | – | – | – |
| O=C1C=Cc2c(-c3ccccc3)oc3cccc1c23 | 9.31 µM (inactive) | 15 µM (inactive) | 26.4 µM (inactive) | 11.2 µM (inactive) | 24.1 µM (inactive) | 12 µM (inactive) | 20.5 µM (inactive) | 13.2 µM (inactive) | 6.35 µM (inactive) | 13.2 µM (inactive) | 4.33 µM (inactive) | 23.4 µM (inactive) | 15.8 µM (inactive) | 8.91 µM (inactive) | 5.97 | 21.1 µM (inactive) | 6.98 µM (inactive) | – | – | – |
